From US20260071179A1, “PRODUCTION METHOD OF NERVE CELLS DAMAGED BY OXIDATIVE STRESS AND APPLICATIONS THEREOF” (FUJIFILM Corporation, priority 2023, published 2026)

How the values were obtained:
Format in all cases: cell-based, human
iCell motor neurons [1] = assay: Compound screening using oxidative stress-induced neuronal damage evaluation system (AUC of neurite length over 14 days); details: iCell motor neurons in −AO culture medium (Stress(+)), 4.7×10^4 cells/cm^2, StemSelect Library compounds, FIG. 18
Protocol: (§1) A solution obtained by diluting iMatrix-511 silk (Matrixome, 892021) 16.7 times with PBS was added to a 96-well plate (Corning, 356461) coated with PDL at 70 μL/well, and incubated at 37° C. for 3 hours to 72 hours.
(§2) As the compound library, StemSelect Library compounds (Merck, 569774) were used. As a culture medium containing an antioxidant, a culture medium (Stress(−)) in which DMSO was added to a +AO culture medium to a final concentration of 0.1% by volume (v/v) was used, as a culture medium not containing an antioxidant, a culture medium (Stress(+)) in which DMSO was added to a −AO culture medium to a final concentration of 0.1% by volume (v/v), and as the culture medium of the drug evaluation group, a culture medium in which a DMSO-dissolved compound was added to the −AO culture medium to a concentration of 0.1% by volume (v/v) was used.
(§3) Frozen cells (iCell motor neurons, FCDI, C1048) were thawed in a warm bath at 37° C. After melting, the cells were added to a culture medium and centrifuged at 600×g at room temperature for 5 minutes. After centrifugation, the supernatant was removed, the cells were suspended in 1 mL of the culture medium, and the number of cells was counted. Thereafter, the cells were diluted with a culture medium, seeded at 200 μL/well (4.7×10^4 cells/cm^2), and cultured under the conditions of 37° C. and 5% CO2. After culturing, images were acquired by imaging with IncuCyte S3 (Sartorius, Incucyte S3) every 6 hours.
The neurite length was quantified using the Neurotrack software (Sartorius, 9600-0010) of IncuCyte S3. The area under the curve (AUC) of the curve of the neurite length over time for 14 days was calculated, and the effects of the drug were compared. […] The AUC of the nerve cells (Stress(+) group) (▴) cultured in the culture medium not containing an antioxidant was reduced as compared with the nerve cells (Stress(−) group) (▪) cultured in the culture medium containing an antioxidant.

iCell motor neurons [2] = assay: Evaluation of necroptosis inhibitor for oxidative stress-induced neuronal damage (neurite length, IncuCyte S3 Neurotrack); details: iCell motor neurons in −AO culture medium (Stress(+)), 4.7×10^4 cells/cm^2, compound 0.01 to 20 μM, FIG. 14
Protocol: as §1
as §2, with “As a” for “As the compound library, StemSelect Library compounds (Merck, 569774) were used. As a”, “volume (v/v) (0.01 to 20 μM) was used.” for “volume (v/v) was used.”
as §3, with “After culturing, images were acquired by imaging with IncuCyte S3 (Sartorius, Incucyte S3) every 6 hours.” left out
(§4) The neurite length was quantified using the Neurotrack software (Sartorius, 9600-0010) of IncuCyte S3.

[3] = tested on: nerve cells (considered to be cortical excitatory neurons) produced by forcibly expressing the Ngn2 genes from the iPS cells; assay: Evaluation of compound for oxidative stress-induced neuronal damage (neurite length, IncuCyte S3 Neurotrack); details: same method as in Test Example 7, −AO culture medium (Stress(+)), FIG. 19
Protocol: as §1
as §2, with “As a” for “As the compound library, StemSelect Library compounds (Merck, 569774) were used. As a”, “volume (v/v) (0.004 to 20 μM) was used.” for “volume (v/v) was used.”
The nerve cells (considered to be cortical excitatory neurons) produced by forcibly expressing the Ngn2 genes from the iPS cells was thawed in a warm bath at 37° C. […] After centrifugation, the supernatant was removed, the cells were suspended in 1 mL of the culture medium, and the number of cells was counted. […]
as §4
The effect of edaravone, which was used as a therapeutic drug for ALS, on oxidative stress-induced neuronal damage was evaluated by the same method as in Test Example 7. […]

SMILES | reduction in AUC of the curve of the neurite length over time for 14 days (iCell motor neurons [1]) | other results
CCCC(=O)OCc1ccc(OC(=O)/C=C(C)/C=C/C=C(C)/C=C/C2=C(C)CCCC2(C)C)cc1 [ATRA-BA Hybrid] | strongly suppressed | 
CC[C@H](C)C(=O)O[C@H]1CCC=C2C=C[C@H](C)[C@H](CC[C@@H]3C[C@@H](O)CC(=O)O3)[C@H]21 [Mevastatin] | strongly suppressed | 
O=C(O)c1ccc2cc(-c3ccc(O)c(C45CC6CC(CC(C6)C4)C5)c3)ccc2c1 [CD437/AHPN] | strongly suppressed | 
c1ccc2c(Oc3nc(Nc4ccc(N5CCOCC5)cc4)c4ncn(C5CCCCC5)c4n3)cccc2c1 [Purmorphamine] | strongly suppressed | 
Clc1ccccc1CNCC1CCC(CNCc2ccccc2Cl)CC1 (stereo not shown) [AY 9944] | strongly suppressed | 
CC#C[C@]1(O)CC[C@H]2[C@@H]3CCC4=CC(=O)CCC4=C3[C@@H](c3ccc(N(C)C)cc3)C[C@@]21C [Mifepristone] | strongly suppressed | 
c1nc2nc(Nc3ccc(N4CCOCC4)cc3)nc(NC3CCCCC3)c2[nH]1 [Reversine] | strongly suppressed | 
C[C@H](NC(=O)Cc1cc(F)cc(F)c1)C(=O)N[C@H]1N=C(c2ccccc2)c2ccccc2N(C)C1=O [γ-Secretase Inhibitor XXI] | strongly suppressed | 
N=C(N)SCCc1ccc(OCc2ccc([N+](=O)[O-])cc2)cc1 [KB-R7943] | strongly suppressed | 
CN1C(=O)C(Cc2c[nH]c3ccccc23)NC1=S (stereo not shown) [Necrostatin-1] |  | reduction in the sum of the neurite lengths (iCell motor neurons [2]): suppressed in a concentration-dependent manner
O=C(Nc1cccc(NC(=O)c2cccc(O)c2O)c1)c1cccc(O)c1O [Telomerase Inhibitor IX] | strongly suppressed | 
CC1=NN(c2ccccc2)C(=O)C1 [edaravone] |  | reduction in the sum of the neurite lengths [3]: suppressed in a concentration-dependent manner
C=CC(C)(C)c1cc(/C=C/C(=O)c2ccc(O)cc2)c(OC)cc1O [Licochalcone-A] | strongly suppressed | 
